From patent publication US20210085703A1, “Compositions and Methods for Preventing or Treating Nephrolithiasis” (SP Nutraceuticals, Inc., priority 2017, published 2021)
Read-outs that look alike come from different tables or passages of the source.

Legend:
[1] = cited from earlier work
[2] = Preliminary NMR studies of arbutin in acidic conditions; type: physicochemical; conditions: low pH, in solution
Source text: Arbutin has been described to readily degrade into the split components D-glucose and HQ (and conjugates) in acidic environments, an enteric coated tablet vehicle could potentially be utilised to bypass hydrolysis by stomach acids and improve oral bioavailability.

[3] = test system: calcium oxalate stone formation in D. melanogaster; assay: Dose response relationship of arbutin and calcium oxalate stone formation (fecal excreta and dissected Malpighian tubules); type: in vivo, Drosophila melanogaster
Method: To quantify calcium oxalate calculi via D. melanogaster excreta birefringence assay, approximately 20 newly eclosed flies were added to each of 15 vials containing either of the lithogenic diets or standard food medium as a control. Stone forming diets were prepared according to the method discussed above. A glass coverslip (18×18 mm) was suspended from the cotton tube plug to allow for the collection of fecal matter. Following a 14-day incubation period, the coverslip was extracted from each tube and each coverslip was directly imaged by confocal microscopy under polarized light. Control experiments performed in a similar fashion with standard food media. The percent area of birefringence for each coverslip was individually analyzed and quantified using NIH ImageJ software (Particle Analysis function). In order to measure dose response relationship of arbutin and calcium oxalate stone formation, thirty milliliters of 0.5% (w/v) sodium oxalate media was prepared with […] arbutin. A 10-fold serial dilution was performed to obtain 15 ml of media per dilution. Each dilution was divided into 3 narrow fly vials to yield triplicates. Approximately 20 newly eclosed flies were added to each vial with a glass coverslip (18×18mm) suspended from the cotton via plug to collect fecal matter. After a 14-day incubation period, each coverslip was extracted and stone burden was quantified as described above to observe the dose-response relationship between arbutin concentration and percentage area of birefringence.

[4] = in vitro or in vivo studies; cited from earlier work
[5] = rat; cited from earlier work
[6] = In vitro patient-urine based analysis of arbutin and calcium oxalate interactions (birefringence); design: species or system human; conditions: 1 mM arbutin, pH7/37° C., 24 hours
Method: 50 μl of recurrent calcium oxalate stone forming patient urine and healthy urine samples were combined with 45 μl of 20 mM 4-(2-hydroxyethyl)-1-piperazineethanesulfonic acid (HEPES) buffer (pH 7-8). 5 μl of 20 mM arbutin was added to each solution to form a 1 mM final concentration of the drug. Immediately after addition of the drug, 5 μl of each sample was spotted on a glass slide and birefringence data was imaged on confocal microscope. Each sample was incubated at 37° C. for 24 hours. 5 μl of the sample was identically collected and reimaged. The percent area of birefringence was data analysed as described above. This experiment was repeated in sodium acetate/acetic acid buffer at pH of 4 to observe the efficacy of arbutin in acidic environments. Reduction of percentage stone reduction was analysed using one way ANOVA. Control experiments were conducted using Quick Fix plus synthetic urine from Spectrum labs Cincinnati, Ohio, USA.

HEK293 cells [7] = assay: Cell viability of HEK cells under oxalate conditions with arbutin; type: cell-based, human
Method: FIG. 6a) Confocal fluorescence images of HEK293 cells stained with CellTracker Red to label the cell surface and Hoechst to label the nuclei. HEK293 cells were treated with 20 μM sodium oxalate for 30 mins. Birefringence signal was observed within HEK293 cells (white signal). FIG. 6b) Activity of LDH released from HEK293 cells after 30 min incubation with oxalate in the presence or absence of arbutin. FIG. 6c) Cell viability in arbutin treated HEK293 and PC3MLN4 cells over a 3 day period. Green line represents control normalized to 100% at that same timepoint. *** denotes p<0.05, two way ANOVA; Scheffe a correction.
To assess the cytotoxity of sodium oxalate and arbutin, human embryonic kidney epithelial cells (HEK293; ATCC® CRL-1573™), were cultured in 6-well plate containing 18 mm diameter glass coverslips to 50% confluence. […] The treated media was then removed and stored at 4° C. for further analysis. Cells were washed with Cl-free buffer and stained with 20 μM Cell tracker red CMTPX Dye (ThermoFisher Scientific) for 15 mins. Cells were triple washed with Cl-buffer and coverslips were mounted with ProLong® Gold Antifade Mountant with DAPI (ThermoFisher Scientific) without permeabilizing in preparation for confocal microscopy. Samples were imaged using a Nikon A1R+ confocal microscope (1.2 au) with a 20× dry or 60× oil-immersion lens and presented using NIS Elements software (Nikon).

[8] = test system: calcium oxalate calculi deposition in fecal excreta of D. melanogaster; assay: Drug library screening by D. melanogaster fecal excreta birefringence assay; type: in vivo, Drosophila melanogaster; conditions: 20 μM candidate compound in fly media with 0.5% (w/v) sodium oxalate; duplicates
Method: To quantify calcium oxalate calculi via D. melanogaster excreta birefringence assay, approximately 20 newly eclosed flies were added to each of 15 vials containing either of the lithogenic diets or standard food medium as a control. Stone forming diets were prepared according to the method discussed above. A glass coverslip (18×18 mm) was suspended from the cotton tube plug to allow for the collection of fecal matter. Following a 14-day incubation period, the coverslip was extracted from each tube and each coverslip was directly imaged by confocal microscopy under polarized light. Control experiments performed in a similar fashion with standard food media. The percent area of birefringence for each coverslip was individually analyzed and quantified using NIH ImageJ software (Particle Analysis function). […] The percentage area of birefringence was quantified and compared birefringence data from control experiments with separately prepared 0.5% sodium oxalate media with no addition of candidate compounds. […] After 7 days of incubation and ingestion of drug candidates, viability of flies was quantitated and all coverslips containing fecal excreta were analyzed for birefringence signal (FIG. 2d).

[9] = test system: calcium oxalate stone burden in D. melanogaster fed patient urine; assay: Patient derived urine based calcium oxalate stone induction in D. melanogaster; type: in vivo, Drosophila melanogaster
Method: In addition, effect of arbutin on patient derived urine based calcium oxalate stone induction in D. melanogaster was assessed. Urine samples were collected from recurrent calcium oxalate stone forming patients (n=10 patients) and centrifuged at 2500 rpm. One milliter aliquots of supernatant were prepared and stored at −80° C. for further analysis. Ten milliters of standard medium was prepared and thoroughly mixed with 1mL of patient urine, this was separated into two individual narrow vials (5 mL per vial). Approximately 20 newly eclosed flies were added to each vial. A glass coverslip (18×18 mm) was suspended from the cotton vial plug to collect fecal matter. […] Stone burden on each coverslip was quantified via the aforementioned birefringence assay and results were expressed as mean±standard error of mean (SEM). Percentage stone burden were analyzed using one way analysis of variance (ANOVA), (Prism 6, GraphPad Software, Inc., San Diego, Calif., USA) (FIG. 3e).
D. melanogaster incubated in this patient urine based model generated calculi in the same manner as with fly food supplemented with sodium oxalate. […] Various pH's were evaluated in order to recapitulate the pH in human urine at the kidney and bladder (pH 4-6) with a greater reduction in calculi formation observed at pH 7-8 (FIG. 3f, * denotes p<0.05, two-way ANOVA, Scheffe a correction).

[10] = mouse; cited from earlier work
HEK293 cells [11] = assay: Cytotoxicity assay (LDH release) of sodium oxalate and arbutin on human kidney epithelial cells; type: cell-based; conditions: arbutin 1 mM final with oxalate, 30 min incubation
Method: To assess the cytotoxity of sodium oxalate and arbutin, human embryonic kidney epithelial cells (HEK293; ATCC® CRL-1573™), were cultured in 6-well plate containing 18 mm diameter glass coverslips to 50% confluence. Following aspiration of culture medium, the cells were incubated in a chloride-free solution containing 130 mM Potassium Gluconate, 5 mM Glucose, and 20 mM HEPES (pH 7.4) and 20 μM sodium oxalate for 30 minutes. The treated media was then removed and stored at 4° C. for further analysis. Cells were washed with Cl-free buffer and stained with 20 μM Cell tracker red CMTPX Dye (ThermoFisher Scientific) for 15 mins. Cells were triple washed with Cl-buffer and coverslips were mounted with ProLong® Gold Antifade Mountant with DAPI (ThermoFisher Scientific) without permeabilizing in preparation for confocal microscopy. Samples were imaged using a Nikon A1R+ confocal microscope (1.2 au) with a 20× dry or 60× oil-immersion lens and presented using NIS Elements software (Nikon).
The cytotoxicity of HEK293 cells in sodium oxalate media with or without arbutin was determined by quantifying […] (LDH) content liberated by damaged cells using Cytotoxicity Detection KitPLUS (LDH) (Roche) following the manufacturers instructions. Absorbance readings were taken at 492 nm using BioTek PowerWave HT Microplate Spectrophotometer.

For `OCC1OC(Oc2ccc(O)cc2)C(O)C(O)C1O` [arbutin, hydroquinone β-D-glucopyranoside], the “administered arbutin dose retrieved in the urine as HQ conjugates” value ([1]; human, 4 hrs following an oral dose) is given as “approximately 70%”, the “absorption from the GI tract” value ([1]; oral) is given as “heavily absorbed from the GI tract” and the “stability in acidic conditions (NMR)” value [2] is given as “stable”. For the same compound, the “calculi content in MTs” value ([3]; 32 μM and 512 μM arbutin treatment) was “decreases in calculi content in MTs”, the “arbutin concentration at which calculi content in fecal excreta significantly decreased” value ([3]; 0.5% (w/v) sodium oxalate media, 14-day incubation) was greater than 64 µM and the IC50 ([3]; Drosophila melanogaster, 336 h, 0.5% (w/v) sodium oxalate media, 14-day incubation, read-out: calculated IC50, calculi content deposited in fecal excreta) was 40 µM. The “calculi deposits in dissected MTs compared to controls” value ([3]; arbutin at 1 mM in fly media+0.05% sodium oxalate, controls fly media+0.5% oxalate±DMSO) was “near abrogation of calculi deposits”, the “lowest concentration with anti-lithogenic abilities” value ([3]; fly media supplemented with sodium oxalate (0.5%)) was 64 µM and the genotoxic effects [4] was “No genotoxic effects”. The “acute and chronic toxicity by oral dosing” value [5] was “low risk of acute and chronic toxicity”, the “difference in birefringence events in control, healthy urine samples” value [6] was “not significant” and the “birefringence events in nephrolithiasis patient urine samples” value ([6]; n=3) was “significant reduction in birefringence events”. The “cell viability compared to arbutin treatment alone” value (HEK293 cells [7]; arbutin 1 mM final with oxalate, HEK cells) was “no impact”, the “effect on oxalate induced loss of cell viability” value (HEK293 cells [7]; arbutin 1 mM final, HEK cells under 0.1% calcium oxalate conditions) was “ameliorated this effect” and the “anti-lithogenic activity in library screen (calculi deposition in fecal excreta)” value [8] was “consistently exhibited anti-lithogenic activity”. For the same compound, the “stone burden via fecal excreta assay in comparison with citrate” value ([9]; 1 mM final concentration in fly media with patient urine, regardless of pH) was “significant decrease in stone burden”, the “pH with greater reduction in calculi formation” value ([9]; 1 mM in fly media with patient urine, various pHs) was 7-8 pH and the “acute and chronic toxicity by oral dosing” value [10] was “low risk of acute and chronic toxicity”. The “LDH activity compared to arbutin treatment alone” value (HEK293 cells [11]) was “no impact”.
